#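 Compound exposure: 48 hours, 5 concentrations, 96-well plates. Definition used: TGI = concentration required for complete inhibition of growth.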
# Key:
# Experiment in all cases: DTP human tumour cell line panel, 48 h
# NCI-H460 lung = tested on: NCI-H460 lung
# UACC-257 melanoma = tested on: UACC-257 melanoma
# CCRF-CEM leukemia = tested on: CCRF-CEM leukemia
# PC-3 prostate = tested on: PC-3 prostate
# BT-549 breast = tested on: BT-549 breast
# UO-31 renal = tested on: UO-31 renal
# SR leukemia = tested on: SR leukemia
# HCT-15 colon = tested on: HCT-15 colon
# LOX IMVI melanoma = tested on: LOX IMVI melanoma
# OVCAR-5 ovarian = tested on: OVCAR-5 ovarian
# MOLT-4 leukemia = tested on: MOLT-4 leukemia
# RPMI-8226 leukemia = tested on: RPMI-8226 leukemia
# HOP-92 NSCLC = tested on: HOP-92 NSCLC
# KM12 colon = tested on: KM12 colon
# T-47D breast = tested on: T-47D breast
# IGROV1 ovarian = tested on: IGROV1 ovarian
# 786-0 renal = tested on: 786-0 renal
# HCT-116 colon = tested on: HCT-116 colon
# U251 CNS = tested on: U251 CNS
# NCI-H522 lung = tested on: NCI-H522 lung
# HL-60(TB) leukemia = tested on: HL-60(TB) leukemia
# MDA-MB-231 breast = tested on: MDA-MB-231 breast
# HOP-62 NSCLC = tested on: HOP-62 NSCLC
# SK-MEL-28 melanoma = tested on: SK-MEL-28 melanoma
# SF-268 CNS = tested on: SF-268 CNS
# DU-145 prostate = tested on: DU-145 prostate
# SK-OV-3 ovarian = tested on: SK-OV-3 ovarian
# SF-539 CNS = tested on: SF-539 CNS
# M14 melanoma = tested on: M14 melanoma
# HCC-2998 colon = tested on: HCC-2998 colon
# MDA-MB-435 = tested on: MDA-MB-435
# SK-MEL-5 melanoma = tested on: SK-MEL-5 melanoma
# OVCAR-3 ovarian = tested on: OVCAR-3 ovarian
# SW-620 colon = tested on: SW-620 colon
# NCI-H23 lung = tested on: NCI-H23 lung
# HT29 colon = tested on: HT29 colon
# MDA-N = tested on: MDA-N
# TK-10 renal = tested on: TK-10 renal
# SN12C renal = tested on: SN12C renal
# OVCAR-4 ovarian = tested on: OVCAR-4 ovarian
# UACC-62 melanoma = tested on: UACC-62 melanoma
# NCI/ADR-RES ovarian = tested on: NCI/ADR-RES ovarian
# COLO 205 colon = tested on: COLO 205 colon
# MCF7 breast = tested on: MCF7 breast
# SNB-19 CNS = tested on: SNB-19 CNS
# SF-295 CNS = tested on: SF-295 CNS
# RXF 393 renal = tested on: RXF 393 renal
# K-562 leukemia = tested on: K-562 leukemia
# A549 NSCLC = tested on: A549 NSCLC
# OVCAR-8 ovarian = tested on: OVCAR-8 ovarian
# NCI-H226 lung = tested on: NCI-H226 lung
# EKVX NSCLC = tested on: EKVX NSCLC
# CAKI-1 renal = tested on: CAKI-1 renal
# SNB-75 CNS = tested on: SNB-75 CNS
# SK-MEL-2 melanoma = tested on: SK-MEL-2 melanoma
# MALME-3M melanoma = tested on: MALME-3M melanoma
# ACHN renal = tested on: ACHN renal
smiles,measurement,setting,value
COc1cccc(-c2nc(-c3cnccn3)n(COCCO)n2)c1,TGI,NCI-H460 lung,> 100 µM
same,TGI,UACC-257 melanoma,> 100 µM
same,TGI,CCRF-CEM leukemia,> 100 µM
same,TGI,PC-3 prostate,> 100 µM
same,TGI,BT-549 breast,> 100 µM
same,TGI,UO-31 renal,> 100 µM
same,TGI,SR leukemia,> 100 µM
same,TGI,HCT-15 colon,> 100 µM
same,TGI,LOX IMVI melanoma,> 100 µM
same,TGI,OVCAR-5 ovarian,> 100 µM
same,TGI,MOLT-4 leukemia,> 100 µM
same,TGI,RPMI-8226 leukemia,> 100 µM
same,TGI,HOP-92 NSCLC,> 100 µM
same,TGI,KM12 colon,> 100 µM
same,TGI,T-47D breast,> 100 µM
same,TGI,IGROV1 ovarian,> 100 µM
same,TGI,786-0 renal,> 100 µM
same,TGI,HCT-116 colon,> 100 µM
same,TGI,U251 CNS,> 100 µM
same,TGI,NCI-H522 lung,> 100 µM
same,TGI,HL-60(TB) leukemia,> 100 µM
same,TGI,MDA-MB-231 breast,> 100 µM
same,TGI,HOP-62 NSCLC,> 100 µM
same,TGI,SK-MEL-28 melanoma,> 100 µM
same,TGI,SF-268 CNS,> 100 µM
same,TGI,DU-145 prostate,> 100 µM
same,TGI,SK-OV-3 ovarian,> 100 µM
same,TGI,SF-539 CNS,> 100 µM
same,TGI,M14 melanoma,> 100 µM
same,TGI,HCC-2998 colon,> 100 µM
same,TGI,MDA-MB-435,> 100 µM
same,TGI,SK-MEL-5 melanoma,> 100 µM
same,TGI,OVCAR-3 ovarian,> 100 µM
same,TGI,SW-620 colon,> 100 µM
same,TGI,NCI-H23 lung,> 100 µM
same,TGI,HT29 colon,> 100 µM
same,TGI,MDA-N,> 100 µM
same,TGI,TK-10 renal,> 100 µM
same,TGI,SN12C renal,> 100 µM
same,TGI,OVCAR-4 ovarian,> 100 µM
same,TGI,UACC-62 melanoma,> 100 µM
same,TGI,NCI/ADR-RES ovarian,> 100 µM
same,TGI,COLO 205 colon,> 100 µM
same,TGI,MCF7 breast,> 100 µM
same,TGI,SNB-19 CNS,> 100 µM
same,TGI,SF-295 CNS,> 100 µM
same,TGI,RXF 393 renal,> 100 µM
same,TGI,K-562 leukemia,> 100 µM
same,TGI,A549 NSCLC,> 100 µM
same,TGI,OVCAR-8 ovarian,> 100 µM
CCC(=O)C(C(C)/C=C/CCSc1ccccc1)C(O)CCCCCC(=O)OC (stereo not given),TGI,NCI-H460 lung,> 100 µM
same,TGI,UACC-257 melanoma,> 100 µM
same,TGI,CCRF-CEM leukemia,> 100 µM
same,TGI,PC-3 prostate,> 100 µM
same,TGI,BT-549 breast,> 100 µM
same,TGI,UO-31 renal,> 100 µM
same,TGI,SR leukemia,> 100 µM
same,TGI,HCT-15 colon,> 100 µM
same,TGI,LOX IMVI melanoma,> 100 µM
same,TGI,OVCAR-5 ovarian,> 100 µM
same,TGI,MOLT-4 leukemia,81 µM
same,TGI,RPMI-8226 leukemia,> 100 µM
same,TGI,NCI-H226 lung,> 100 µM
same,TGI,HOP-92 NSCLC,> 100 µM
same,TGI,KM12 colon,> 100 µM
same,TGI,IGROV1 ovarian,> 100 µM
same,TGI,786-0 renal,> 100 µM
same,TGI,HCT-116 colon,> 100 µM
same,TGI,EKVX NSCLC,> 100 µM
same,TGI,U251 CNS,> 100 µM
same,TGI,NCI-H522 lung,> 100 µM
same,TGI,MDA-MB-231 breast,> 100 µM
same,TGI,HOP-62 NSCLC,> 100 µM
same,TGI,SK-MEL-28 melanoma,> 100 µM
same,TGI,SF-268 CNS,> 100 µM
same,TGI,DU-145 prostate,> 100 µM
same,TGI,SK-OV-3 ovarian,> 100 µM
same,TGI,SF-539 CNS,> 100 µM
same,TGI,M14 melanoma,> 100 µM
same,TGI,HCC-2998 colon,> 100 µM
same,TGI,MDA-MB-435,> 100 µM
same,TGI,SK-MEL-5 melanoma,> 100 µM
same,TGI,OVCAR-3 ovarian,> 100 µM
same,TGI,SW-620 colon,> 100 µM
same,TGI,CAKI-1 renal,> 100 µM
same,TGI,NCI-H23 lung,> 100 µM
same,TGI,HT29 colon,> 100 µM
same,TGI,MDA-N,> 100 µM
same,TGI,SNB-75 CNS,> 100 µM
same,TGI,TK-10 renal,> 100 µM
same,TGI,SN12C renal,> 100 µM
same,TGI,SK-MEL-2 melanoma,> 100 µM
same,TGI,OVCAR-4 ovarian,> 100 µM
same,TGI,UACC-62 melanoma,> 100 µM
same,TGI,NCI/ADR-RES ovarian,> 100 µM
same,TGI,COLO 205 colon,> 100 µM
same,TGI,MCF7 breast,> 100 µM
same,TGI,SNB-19 CNS,> 100 µM
same,TGI,SF-295 CNS,> 100 µM
same,TGI,MALME-3M melanoma,> 100 µM
same,TGI,RXF 393 renal,> 100 µM
same,TGI,K-562 leukemia,> 100 µM
same,TGI,A549 NSCLC,> 100 µM
same,TGI,OVCAR-8 ovarian,> 100 µM
same,TGI,ACHN renal,> 100 µM

# Source: PubChem BioAssay (NCI)
